Results: US20140274971A1, “Systems and Methods of Using Chemically Bound Antibiotics Activated by Infections” (Osteoceramics, Inc., priority 2013, published 2014)
Like-named read-outs stand apart in the source and are kept apart here.

Key:
staphylococcus aureus = assay: Repeated Kirby-Bauer test, ciprofloxacin-doped cement (Example 4); assay type: cell-based
Description: A Kirby-Bauer test using staphylococcus aureus was repeated for ciprofloxacin-doped cement with more detail. All specimens, and the paper control, were 6 mm diameter.

Pseudo. A. = assay type: cell-based, Psuedomonus aeruginosa
Description: (§1) The setting solution is aqueous calcium chloride.

Staph. A. = assay type: cell-based, Staphylococcus aureus
Description: as §1

selected bacterium = assay type: cell-based; conditions: for effectiveness of other tetracyclines (in words): other experiments, bound to implant
Description: They were rinsed with deionized water and dried. […] The solutions were saved for bioactivity testing.

bacterial growth = assay: Mueller-Hinton agar cultures of concretes made of tetracycline-treated grains; assay type: cell-based; conditions: concretes of treated grains with gypsum, calcium aluminate or zinc phosphate cement; cured 24 hours
Procedure: These were separated into sizes with sieves, to produce a range of size fractions; 12-20 mesh, 20-35 mesh, 35-65 mesh, 65-270 mesh, and minus 325 mesh. […] The tetracycline bonds to the tricalcium component of the grain surfaces. […] So the tricalcium phosphate phase is interconnected throughout the volume and is exposed at 50% of the surface area. […] The surface area was calculated assuming the particles were spheres of the median radius for the sieve fraction. […] The grains changed from white to orange as a result of the treatment. These grains were used to make cements for filling bone voids, combining 65% of one fraction with 15% of the second, finer, fraction in the series, 5% of the −325 mesh fraction and 15% of cement. Different cements were used, including gypsum, calcium aluminate and zinc phosphate cements. These concretes set in 5 to 10 minutes in a wet environment. After curing 24 hours at 100% humidity and 37° C., disks of these concretes were tested in Mueller-Hinton agar cultures to determine if they would inhibit bacterial growth. […] Thus the concrete prostheses have the properties needed to treat bone voids. Note that the size of the coarse fraction 12-20, […] or 35-65 will depend on the maximum particle size that must not exceed the maximum size of the void to be filled.

Corynebacterium spp. = assay: Kirby-Bauer method, tetracycline treated disks, periodontal bacteria; assay type: cell-based; conditions: disks treated with 0.1 mg/ml, 1 mg/ml and 10 mg/ml; 10^4 to 10^6 levels
Description: (§2) Because tooth roots are in an anaerobic environment, bacteria were selected from those commonly encountered in periodontal disease for evaluation by the Kirby-Bauer method. They were ATCCJ177i: Bacillus cereus, Corynebacterium spp., Esccherichia coli, Pasteurella multocida and Staphylococcus spp. Each was doped on Mueller-Hinton agar at 10^4 to 10^6 levels.

Pasteurella multocida = assay: as above; assay type: cell-based; conditions: disks treated with 0.1 mg/ml, 1 mg/ml and 10 mg/ml; 10^4 to 10^6 levels
Description: as §2

Staphylococcus spp. = assay: as above; assay type: cell-based; conditions: disks treated with 0.1 mg/ml, 1 mg/ml and 10 mg/ml; 10^4 to 10^6 levels
Description: as §2

Esccherichia coli = assay: as above; assay type: cell-based; conditions: disks treated with 0.1 mg/ml, 1 mg/ml and 10 mg/ml; 10^4 to 10^6 levels
Description: as §2

Bacillus cereus = assay: as above; assay type: cell-based; conditions: disks treated with 0.1 mg/ml, 1 mg/ml and 10 mg/ml; 10^4 to 10^6 levels
Description: as §2

[1] = 10^−2 gr/gram of calcium aluminate, 1 Day
[2] = 10^−2 gr/gram of calcium aluminate, 1 Hour
[3] = 10^−2 gr/gram of calcium aluminate, 1 Week
[4] = 10^−2 grams ciprofloxacin per gram of calcium aluminate, one week
[5] = 10^−3 gr/gram of calcium aluminate, 1 Day
[6] = 10^−3 gr/gram of calcium aluminate, 1 Hour
[7] = 10^−3 gr/gram of calcium aluminate, 1 Week
[8] = 10^−4 gr/gram of calcium aluminate, 1 Day
[9] = 10^−4 gr/gram of calcium aluminate, 1 Hour
[10] = 10^−4 gr/gram of calcium aluminate, 1 Week

O=C(O)c1cn(C2CC2)c2cc(N3CCNCC3)c(F)cc2c1=O [ciprofloxacin, Ciprofloxacin]
zone compared with control disk (in words) (staphylococcus aureus; 10^−2 g/g concentration): equivalent to the control disk | zone compared with control disk (in words) (staphylococcus aureus; 10^−3 g/g): somewhat less | effect of rinsing the pellet to remove surface antibiotic (staphylococcus aureus; rinsed vs not rinsed): had no effect | Kirby-Bauer Inhibition Zone (Pseudo. A.; [1]): 35 mm | Kirby-Bauer Inhibition Zone (Pseudo. A.; [2]): 44 mm | Kirby-Bauer Inhibition Zone (Pseudo. A.; [3]): 39 mm | inhibition (in words) (Pseudo. A.; [4]): effective for one week | Kirby-Bauer Inhibition Zone (Pseudo. A.; [5]): 19 mm | Kirby-Bauer Inhibition Zone (Pseudo. A.; [6]): 34 mm | Kirby-Bauer Inhibition Zone (Pseudo. A.; [7]): 21 mm | Kirby-Bauer Inhibition Zone (Pseudo. A.; [8]): 0 mm | Kirby-Bauer Inhibition Zone (Pseudo. A.; [9]): 21 mm | Kirby-Bauer Inhibition Zone (Pseudo. A.; [10]): 0 mm | Kirby-Bauer Inhibition Zone (E. Coli; [1]): 37 mm | Kirby-Bauer Inhibition Zone (E. Coli; [2]): 49 mm | Kirby-Bauer Inhibition Zone (E. Coli; [3]): 44 mm | inhibition (in words) (E. Coli; [4]): effective for one week | Kirby-Bauer Inhibition Zone (E. Coli; [5]): 27 mm | Kirby-Bauer Inhibition Zone (E. Coli; [6]): 42 mm | Kirby-Bauer Inhibition Zone (E. Coli; [7]): 33 mm | Kirby-Bauer Inhibition Zone (E. Coli; [8]): 22 mm | Kirby-Bauer Inhibition Zone (E. Coli; 10^−4 gr/gram of calcium aluminate, 1 Hour after setting, saline 37° C.): 34 mm | Kirby-Bauer Inhibition Zone (E. Coli; [10]): 23 mm | Kirby-Bauer Inhibition Zone (Staph. A.; [1]): 29 mm | Kirby-Bauer Inhibition Zone (Staph. A.; [2]): 34 mm | Kirby-Bauer Inhibition Zone (Staph. A.; [3]): 32 mm | inhibition (in words) (Staph. A.; [4]): effective for one week | Kirby-Bauer Inhibition Zone (Staph. A.; [5]): 5 mm | Kirby-Bauer Inhibition Zone (Staph. A.; [6]): 27 mm | Kirby-Bauer Inhibition Zone (Staph. A.; [7]): 21 mm | Kirby-Bauer Inhibition Zone (Staph. A.; [8]): 0 mm | Kirby-Bauer Inhibition Zone (Staph. A.; [9]): 7 mm | Kirby-Bauer Inhibition Zone (Staph. A.; [10]): 0 mm

CN(C)[C@@H]1C(O)=C(C(N)=O)C(=O)[C@@]2(O)C(O)=C3C(=O)c4c(O)ccc(Cl)c4[C@@H](O)[C@H]3C[C@@H]12 [democlotetracycline]
effectiveness of other tetracyclines (in words) (selected bacterium): effective

CN(C)[C@@H]1C(O)=C(C(N)=O)C(=O)[C@@]2(O)C(O)=C3C(=O)c4c(O)cccc4[C@@](C)(O)[C@H]3[C@H](O)[C@@H]12 [oxytetracycline]
effectiveness of other tetracyclines (in words) (selected bacterium): effective

CN(C)[C@@H]1C(=O)C(C(N)=O)=C(O)[C@@]2(O)C(=O)C3=C(O)c4c(O)cccc4[C@@](C)(O)[C@H]3C[C@@H]12 [tetracycline, Tetracycline]
inhibition of bacterial growth by concrete disks (in words) (bacterial growth): perform in the same way as the disks in example one | bacterial growth adjacent to the disks (in words) (Corynebacterium spp.): prevented | bacterial growth adjacent to the disks (in words) (Pasteurella multocida): prevented | bacterial growth adjacent to the disks (in words) (Staphylococcus spp.): prevented | bacterial growth adjacent to the disks (in words) (Esccherichia coli): prevented | bacterial growth adjacent to the disks (in words) (Bacillus cereus): prevented | inhibition zones (in words) (selected bacterium; disks made with concentrations of 1 and 10 mg/ml): effective in creating large inhibition zones
